The values that follow come from ChEMBL document CHEMBL1201862, “PubChem BioAssay data set” (2004).

Type in all cases: functional
In assay [1] the target is T1, High affinity choline transporter 1 (Homo sapiens, UniProt Q9GZV3).
T1 sequence (Q9GZV3 whole entry): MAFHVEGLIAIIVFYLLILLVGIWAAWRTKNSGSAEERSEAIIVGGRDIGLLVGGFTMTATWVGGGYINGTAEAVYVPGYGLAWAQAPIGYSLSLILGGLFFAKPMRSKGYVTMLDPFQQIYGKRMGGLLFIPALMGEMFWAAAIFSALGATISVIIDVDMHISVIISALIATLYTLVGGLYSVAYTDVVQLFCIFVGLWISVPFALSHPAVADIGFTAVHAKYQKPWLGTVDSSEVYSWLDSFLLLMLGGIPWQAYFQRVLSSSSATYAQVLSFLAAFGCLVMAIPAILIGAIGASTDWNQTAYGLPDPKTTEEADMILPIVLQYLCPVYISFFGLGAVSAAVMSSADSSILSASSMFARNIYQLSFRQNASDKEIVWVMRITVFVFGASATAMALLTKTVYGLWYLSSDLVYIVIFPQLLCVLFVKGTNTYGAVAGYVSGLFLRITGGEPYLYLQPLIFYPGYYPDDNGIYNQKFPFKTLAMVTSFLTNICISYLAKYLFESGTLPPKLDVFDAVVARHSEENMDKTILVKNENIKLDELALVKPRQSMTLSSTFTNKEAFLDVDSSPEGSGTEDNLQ
The experiment in a line: human choline transporter blockers, potency – cell-based, 10-point CRC, membrane potential dye, dose response (AID 588401).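 Further: membrane potential dye fluorescence of choline-evoked depolarization via CHT.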

In another assay the target is Mu-type opioid receptor (Homo sapiens, UniProt P35372). The experiment in a line: Counterscreen for agonists of heterodimerization of the mu 1 (OPRM1) and delta 1 (OPRD1) opioid receptors: Luminescence-based cell-based high throughput dose response assay to identify agonists of OPRM1 homodimerization. A general note: The purpose of a counterscreen is to sort out artefacts and off-target activity.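 Further: U2OS cells expressing OPRM1 and beta-arrestin as split beta-galactosidase partners.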
Sequence of Mu-type opioid receptor (P35372 whole entry): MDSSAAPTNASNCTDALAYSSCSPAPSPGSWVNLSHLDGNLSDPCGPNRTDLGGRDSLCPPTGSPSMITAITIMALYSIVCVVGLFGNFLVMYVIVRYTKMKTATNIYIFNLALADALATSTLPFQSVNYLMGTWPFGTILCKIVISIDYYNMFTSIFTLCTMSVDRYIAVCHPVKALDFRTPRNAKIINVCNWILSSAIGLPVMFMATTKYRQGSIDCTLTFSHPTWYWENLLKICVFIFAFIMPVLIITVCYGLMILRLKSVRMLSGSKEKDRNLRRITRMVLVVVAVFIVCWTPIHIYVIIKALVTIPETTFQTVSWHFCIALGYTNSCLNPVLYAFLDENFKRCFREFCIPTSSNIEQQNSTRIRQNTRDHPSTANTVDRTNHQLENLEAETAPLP

Assay [2] addresses 5-hydroxytryptamine receptor 5A (Homo sapiens, UniProt P47898). The experiment in a line: Counterscreen for agonists of OPRM1-OPRD1 heterodimerization: luminescence-based cell-based high throughput dose response assay to identify agonists of 5-hydroxytryptamine (serotonin) 5A receptor (HTR5A). [Related pubchem assays (depositor defined):AID504326, AID504355, AID504692, AID504904, AID504905].

For assay [3], the target named is Delta-type opioid receptor (Homo sapiens, UniProt P41143). The experiment in a line: Counterscreen for agonists of heterodimerization of the mu 1 (OPRM1) and delta 1 (OPRD1) opioid receptors: Luminescence-based cell-based high throughput dose response assay to identify agonists of OPRD1 homodimerization. [Related pubchem assays (depositor defined):AID504326, AID504355, AID504692, AID504904, AID504905].
Sequence of Delta-type opioid receptor (P41143 whole entry): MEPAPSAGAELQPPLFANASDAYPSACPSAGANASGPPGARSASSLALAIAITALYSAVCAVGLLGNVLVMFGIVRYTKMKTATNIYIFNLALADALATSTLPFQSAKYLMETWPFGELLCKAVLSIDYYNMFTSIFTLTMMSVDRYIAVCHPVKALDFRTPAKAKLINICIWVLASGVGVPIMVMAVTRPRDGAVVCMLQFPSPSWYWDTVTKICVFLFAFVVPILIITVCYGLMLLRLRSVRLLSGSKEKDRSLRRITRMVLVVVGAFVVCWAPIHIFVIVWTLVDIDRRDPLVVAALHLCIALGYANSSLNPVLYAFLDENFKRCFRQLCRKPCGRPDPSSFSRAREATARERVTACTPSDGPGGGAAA

The target of assay [4] is T2, Short transient receptor potential channel 4 (Mus musculus, UniProt Q9QUQ5).
T2 sequence (Q9QUQ5 whole entry): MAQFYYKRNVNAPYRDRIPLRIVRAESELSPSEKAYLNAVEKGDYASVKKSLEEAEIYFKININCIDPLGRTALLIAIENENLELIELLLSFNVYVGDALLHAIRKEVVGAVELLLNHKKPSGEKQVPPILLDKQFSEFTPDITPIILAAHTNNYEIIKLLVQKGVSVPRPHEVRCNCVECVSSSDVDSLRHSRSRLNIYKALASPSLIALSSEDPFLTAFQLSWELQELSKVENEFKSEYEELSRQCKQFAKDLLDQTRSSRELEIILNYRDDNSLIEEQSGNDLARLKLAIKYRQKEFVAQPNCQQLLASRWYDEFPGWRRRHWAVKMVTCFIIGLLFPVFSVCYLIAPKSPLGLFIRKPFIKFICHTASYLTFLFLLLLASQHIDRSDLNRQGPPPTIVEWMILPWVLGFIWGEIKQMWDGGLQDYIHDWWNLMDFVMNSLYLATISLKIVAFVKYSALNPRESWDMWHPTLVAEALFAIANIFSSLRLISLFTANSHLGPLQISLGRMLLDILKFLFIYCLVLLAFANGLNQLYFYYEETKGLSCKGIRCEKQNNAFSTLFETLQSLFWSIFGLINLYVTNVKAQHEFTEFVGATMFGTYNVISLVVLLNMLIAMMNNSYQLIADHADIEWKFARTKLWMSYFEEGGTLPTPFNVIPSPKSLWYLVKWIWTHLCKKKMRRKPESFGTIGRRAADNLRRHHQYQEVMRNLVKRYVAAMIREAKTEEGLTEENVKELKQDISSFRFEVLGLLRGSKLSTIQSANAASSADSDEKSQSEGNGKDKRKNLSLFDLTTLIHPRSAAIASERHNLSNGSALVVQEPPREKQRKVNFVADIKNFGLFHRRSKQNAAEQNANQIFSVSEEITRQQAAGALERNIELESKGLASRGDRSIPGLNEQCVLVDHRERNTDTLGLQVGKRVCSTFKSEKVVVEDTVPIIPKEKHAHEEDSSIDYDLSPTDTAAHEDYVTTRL
In words: calcium entry via TRPC4 opening agents – cell-based, HEK293 TRPC4/mu-opioid, Fluo-4 calcium, dose response (AID 434937).

Assay [5] has as its target T1, High affinity choline transporter 1. The experiment in a line: human choline transporter blockers, potency – cell-based, 5-point CRC, membrane potential dye, dose response (AID 504840).

SMILES strings stand for the structures. Activity calls are given as the source filed them.

Sequence of 5-hydroxytryptamine receptor 5A (P47898 whole entry): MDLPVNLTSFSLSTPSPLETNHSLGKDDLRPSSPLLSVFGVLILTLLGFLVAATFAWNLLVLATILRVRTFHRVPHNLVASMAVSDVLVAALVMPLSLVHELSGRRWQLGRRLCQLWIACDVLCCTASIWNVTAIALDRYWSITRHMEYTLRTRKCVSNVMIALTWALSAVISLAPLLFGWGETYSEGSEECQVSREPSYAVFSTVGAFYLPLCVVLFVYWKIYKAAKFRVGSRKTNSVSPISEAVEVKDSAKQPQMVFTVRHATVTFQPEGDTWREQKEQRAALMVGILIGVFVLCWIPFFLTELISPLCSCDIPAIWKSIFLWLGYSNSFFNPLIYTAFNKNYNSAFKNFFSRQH

On to `CCOc1ccc(S(=O)(=O)Nc2cccc(C(=O)NCC(c3ccccc3)N(C)C)c2)cc1` (stereo unspecified), for which the figures for the IC50 in assay [1] and in assay [5] were 3.76 µM (active) and 4.43 µM (active), respectively. The EC50 – broadly, the concentration giving half of the maximal effect – at Mu-type opioid receptor is > 92.5 µM (inactive); in assay [2], > 92.5 µM (inactive); in assay [3] it was 14.1 µM (inactive); in assay [4], 2.99 µM (active).
